{
  "source": "patent US7037914B2",
  "about": "“Carboxylic acid derivative and a pharmaceutical composition containing the derivative as active ingredient” (Ono Pharmaceutical Co., Ltd., priority 1998, dated 2006)",
  "key": {"human PPAR δ": {"target": "T1, human PPAR δ (Homo sapiens, UniProt Q03181)", "T1 construct": "expressed in transfected cells; host or cells: CV-1 cells", "T1 sequence (Q03181 139-441)": "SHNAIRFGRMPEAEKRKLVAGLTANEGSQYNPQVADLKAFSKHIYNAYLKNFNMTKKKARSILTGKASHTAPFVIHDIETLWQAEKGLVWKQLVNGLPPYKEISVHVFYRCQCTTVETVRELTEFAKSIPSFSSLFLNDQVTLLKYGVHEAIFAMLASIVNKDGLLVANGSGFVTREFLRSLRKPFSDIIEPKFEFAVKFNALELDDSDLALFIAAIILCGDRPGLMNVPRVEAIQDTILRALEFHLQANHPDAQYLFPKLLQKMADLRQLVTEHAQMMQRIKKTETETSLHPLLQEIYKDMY", "assay": "Luciferase assay using human PPAR δ (Gal4-PPAR chimeric receptor in CV-1 cells)", "type": "cell-based", "conditions": "luciferase activity with solvent containing no compound defined as 1.0"}, "KKAy/Ta mice": {"system": "KKAy/Ta mice", "assay": "Hypoglycemic and hypolipidemic effects in KKAy mice", "type": "in vivo", "conditions": "3 days, food containing 0.03 % (w/w) compound, 38.9 mg/kg/day (converted)", "source_text": "Hypoglycemic and hypolipidemic effects in KKAy mice:\nMale, 7-weeks old KKAy/Ta mice weighed from […] (seven mice per group) were pre-breaded for approximately one week and acclimatized for three days on milled diet. On the first day of the experiment (Day 0), mice were divided into some groups by weight, plasma glucose and triglyceride (TG) levels to minimize the differences among groups. From the next day for two days they were given compounds by food mixture containing 0.03 % (w/w) of the compound of the present invention or by milled diet only. At 13:00 of the third day, blood samples were collected and glucose and TG were measured. Additionally, there was no significant difference in the food intake between control group (milled diet only) and compounds-treated group (milled diet containing 0.03 % compounds)."}, "human PPAR α": {"target": "T2, human PPAR α (Homo sapiens, UniProt Q07869)", "T2 construct": "expressed in transfected cells; host or cells: CV-1 cells", "T2 sequence (Q07869 167-468)": "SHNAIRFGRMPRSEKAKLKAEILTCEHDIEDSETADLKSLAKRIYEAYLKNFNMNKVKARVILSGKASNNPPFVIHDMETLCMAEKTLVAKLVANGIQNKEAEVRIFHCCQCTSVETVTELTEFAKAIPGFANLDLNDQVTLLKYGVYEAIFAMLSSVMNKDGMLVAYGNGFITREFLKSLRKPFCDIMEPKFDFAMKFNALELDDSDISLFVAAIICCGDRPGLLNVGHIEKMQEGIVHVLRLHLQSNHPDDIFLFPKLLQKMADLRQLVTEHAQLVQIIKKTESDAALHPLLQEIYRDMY", "assay": "Luciferase assay using human PPAR α (Gal4-PPAR chimeric receptor in CV-1 cells)", "type": "cell-based", "conditions": "compound 0.3 μM; luciferase activity of carbaprostacylin 10 μM defined as 1.0"}, "SD rats": {"system": "SD rats", "assay": "Hypocholesterolemic and hypolipidemic effects in normal rats", "type": "in vivo", "conditions": "10 mg/kg orally, hypercholesterolemic food, blood sampled next day", "source_text": "Hypocholesterolemic and hypolipidemic effects in normal rats:\nMale, six-weeks old SD rats (seven rats per group) were left to take milled diet and water ad libitum and were acclimatized for 1 week.\nAt 9:00 on the first day of the experiment (Day 0) blood sampling was done from tail vein. The rats were divided into some groups by body weight, triglyceride(TG), non-esterified fatty acid (NEFA), total cholesterol (TC) values to minimize differences of the parameters among the groups. At 17:00 of the day the compound of the present invention suspended in 0.5% aqueous solution of carboxymethylcellulose (CMC) was orally administered at a dose of 10 mg/kg, and thereafter, with hypercholesterolemic food (5.5% peanut oil, 1.5% cholesterol and 0.5% cholic acid were mixed with milled CRF-1 diet, Charles River Inc.) was given to the rats.\nAt 9:00 of the next day, blood sampling was done from tail vein. The lipid values in blood (TG, NEFA and TC values) were measured.\nThere was no significant difference of the food intake between the control group (provided only 0.5% CMC) and the group treated with the compounds of the present invention."}, "human PPAR γ": {"target": "T3, human PPAR γ (Homo sapiens, UniProt P37231)", "T3 construct": "expressed in transfected cells; host or cells: CV-1 cells", "T3 sequence (P37231 176-477 isoform P37231-2)": "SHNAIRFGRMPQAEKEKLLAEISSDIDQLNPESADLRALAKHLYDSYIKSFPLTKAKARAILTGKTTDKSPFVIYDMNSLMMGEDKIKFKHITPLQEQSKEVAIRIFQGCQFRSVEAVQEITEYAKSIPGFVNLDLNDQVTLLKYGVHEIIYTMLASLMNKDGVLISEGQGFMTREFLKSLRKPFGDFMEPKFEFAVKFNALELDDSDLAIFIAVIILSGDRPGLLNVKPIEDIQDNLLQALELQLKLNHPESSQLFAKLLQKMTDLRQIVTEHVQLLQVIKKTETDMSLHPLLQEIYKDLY", "assay": "Luciferase assay using human PPAR γ (Gal4-PPAR chimeric receptor in CV-1 cells)", "type": "cell-based", "conditions": "compound 1.0 μM; luciferase activity of troglitazone 10 μM defined as 1.0"}},
  "data": [
    {"smiles": "Cc1oc(-c2ccc3c(c2)OCO3)nc1CCOc1cccc(CC(=O)O)c1", "note": "[Example 2 (93), 2-(3-(2-(5-methyl-2-(1,3-dioxaindan-5-yl)oxazol-4-yl)ethoxy)phenyl)acetic acid]", "values": [
      {"measurement": "PPAR δ agonist activity, relative activity", "setting": "human PPAR δ; concentration 1.0 μM", "result": 36.1},
      {"measurement": "PPAR δ agonist activity, relative activity", "setting": "human PPAR δ; concentration 10.0 μM", "result": 54.7}
    ]},
    {"smiles": "Cc1oc(-c2ccccc2)nc1CCOc1cccc(CC(=O)O)c1", "note": "[Example 2 (22)]", "values": [
      {"measurement": "PPAR δ agonist activity, relative activity", "setting": "human PPAR δ; concentration 1.0 μM", "result": 9.3},
      {"measurement": "PPAR δ agonist activity, relative activity", "setting": "human PPAR δ; concentration 10.0 μM", "result": 66.7}
    ]},
    {"smiles": "Cc1oc(-c2ccccc2)nc1CCOc1cccc(CSCC(=O)O)c1", "note": "[Example 2 (12), 2-(3-(2-(5-methyl-2-phenyloxazol-4-yl)ethoxy)phenylmethylthio)acetic acid]", "values": [
      {"measurement": "glycemic value", "setting": "KKAy/Ta mice; control 495 ± 35", "result": "214 ± 19", "unit": "mg/dL"},
      {"measurement": "TG value", "setting": "KKAy/Ta mice; control 558 ± 107", "result": "221 ± 66", "unit": "mg/dL"},
      {"measurement": "PPAR α agonist activity, Relative Activity", "setting": "human PPAR α", "result": 1.7},
      {"measurement": "TG value", "setting": "SD rats; control 147 ± 9", "result": "100 ± 14", "unit": "mg/dL"},
      {"measurement": "TC value", "setting": "SD rats; control 188 ± 5", "result": "70 ± 5", "unit": "mg/dL"},
      {"measurement": "NEFA value", "setting": "SD rats; control 489 ± 66", "result": "178 ± 14", "unit": "μEq/l"},
      {"measurement": "PPAR γ agonist activity, Relative Activity", "setting": "human PPAR γ", "result": 1.4}
    ]},
    {"smiles": "O=C(O)CSCc1cccc(OCc2ccc(-c3ccccc3)cc2)c1", "note": "[Example 2 (11), 2-(3-(biphenyl-4-ylmethoxy)phenylmethylthio)acetic acid]", "values": [
      {"measurement": "PPAR α agonist activity, Relative Activity", "setting": "human PPAR α", "result": 3.2}
    ]},
    {"smiles": "Cc1oc(-c2ccccc2)nc1CCOc1cccc(CCCC(=O)O)c1", "note": "[Example 2 (5), 4-(3-(2-(5-methyl-2-phenyloxazol-4-yl)ethoxy)phenyl)butanoic acid]", "values": [
      {"measurement": "PPAR α agonist activity, Relative Activity", "setting": "human PPAR α", "result": 0.8}
    ]}
  ]
}
